Laboratory results as given in PubChem BioAssay AID330 (DTP/NCI, 2004).
Values joined by “and” are separate entries in the source; they are usually repeats but may differ in a detail not shown here. Equal values may be shown once. Toxic doses and inconclusive results are not listed. The calls were made as follows: active = survival T/C of 150% or more; inactive = T/C below 125% in these data. Peptide text beside a SMILES is read from it. * marks the point of attachment. Cbz = O=C(OCc1ccccc1)*; Bn = c1ccc(C*)cc1

Test system: P388 leukemia ip, CD2F1 mice, survival T/C
Assay: NCI In Vivo Anticancer Drug Screen. Data for tumor model P388 Leukemia (intraperitoneal) in CD2F1 (CDF1) mice
Conditions: endpoint: median survival time, higher = longer survival
How it was run: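 Mice carrying the transplanted tumor received test compound or vehicle. Survival was recorded in each group, and the value is the treated-group measurement divided by that of the vehicle-treated control group.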

[1] = dose: 50.0 mg/kg/injection, schedule: Q01DX005 (ip), vehicle: saline with Tween-80
[2] = dose: 50.0 mg/kg/injection, schedule: Q01DX009 (ip), vehicle: Klucel (hydroxypropylcellulose) (HPC)
[3] = dose: 100.0 mg/kg/injection, schedule: Q01DX009 (ip), vehicle: Klucel (hydroxypropylcellulose) (HPC)
[4] = dose: 200.0 mg/kg/injection, schedule: Q01DX009 (ip), vehicle: Klucel (hydroxypropylcellulose) (HPC)
[5] = dose: 50.0 mg/kg/injection, schedule: Q01DX009 (ip), vehicle: saline
[6] = dose: 100.0 mg/kg/injection, schedule: Q01DX009 (ip), vehicle: saline
[7] = dose: 200.0 mg/kg/injection, schedule: Q01DX009 (ip), vehicle: saline
[8] = dose: 400.0 mg/kg/injection, schedule: Q01DX009 (ip), vehicle: saline
[9] = dose: 100.0 mg/kg/injection, schedule: Q04DX003 (ip), vehicle: saline
[10] = dose: 200.0 mg/kg/injection, schedule: Q04DX003 (ip), vehicle: saline
[11] = dose: 60.0 mg/kg/injection, schedule: Q01DX005 (ip), vehicle: saline with Tween-80
[12] = dose: 120.0 mg/kg/injection, schedule: Q01DX005 (ip), vehicle: saline with Tween-80
[13] = dose: 240.0 mg/kg/injection, schedule: Q01DX005 (ip), vehicle: saline with Tween-80
[14] = dose: 50.0 mg/kg/injection, schedule: Q01DX005 (ip), vehicle: Klucel (hydroxypropylcellulose) (HPC)
[15] = dose: 100.0 mg/kg/injection, schedule: Q01DX005 (ip), vehicle: Klucel (hydroxypropylcellulose) (HPC)
[16] = dose: 200.0 mg/kg/injection, schedule: Q01DX005 (ip), vehicle: Klucel (hydroxypropylcellulose) (HPC)

Measured: T/C

O=C1CN(CCN2CCCCC2)CC(=O)N2Cc3ccccc3CN12
inactive: dose: 12.5 mg/kg/injection, schedule: Q01DX005 (ip), vehicle: saline with Tween-80 102 % of control | dose: 25.0 mg/kg/injection, schedule: Q01DX005 (ip), vehicle: saline with Tween-80 104 % of control | [1] 100 % of control and 102 % of control

CCS(=O)(=O)C(=O)N1CCN(C(=O)S(=O)(=O)CC)CC1
inactive: [2] 98 % of control | [3] 100 % of control | [4] 106 % of control

CCN(CC)CCn1nc2n(c(=O)c1=O)CC(=O)N(C)c1ccc(Cl)cc1-2
inactive: [5] 105 % of control | [6] 105 % of control | [7] 99 % of control

CCC[CH2][GeH][CH2]CCC.CCC[CH2][Ge]([CH2]CCC)[CH2]CCC
inactive: [5] 98 % of control | [6] 88 % of control | [7] 98 % of control

COc1ccc2c(N)c3c4ccccc4cc[n+]3cc2c1OC
inactive: dose: 3.13 mg/kg/injection, schedule: Q04DX003 (ip), vehicle: water 106 % of control and 112 % of control | dose: 6.25 mg/kg/injection, schedule: Q04DX003 (ip), vehicle: water 106 % of control and 114 % of control | dose: 12.5 mg/kg/injection, schedule: Q04DX003 (ip), vehicle: water 112 % of control | dose: 25.0 mg/kg/injection, schedule: Q04DX003 (ip), vehicle: water 121 % of control

N#CCC(=O)CCCCCCCO
inactive: dose: 100.0 mg/kg/injection, schedule: Q01DX001 (ip), vehicle: saline 93 % of control | dose: 400.0 mg/kg/injection, schedule: Q01DX001 (ip), vehicle: saline 92 % of control

C=C1CCOC2(C(O)C(C)(O)CO)NC(=O)C1(O)NC2=O (centres undefined)
inactive: [5] 108 % of control | [6] 118 % of control | [7] 103 % of control | [8] 108 % of control

Cc1cc(C)c([N+](=O)[O-])c([N+](=O)[O-])c1C
inactive: dose: 50.0 mg/kg/injection, schedule: Q01DX009 (ip), vehicle: saline with Tween-80 101 % of control | dose: 100.0 mg/kg/injection, schedule: Q01DX009 (ip), vehicle: saline with Tween-80 106 % of control | dose: 200.0 mg/kg/injection, schedule: Q01DX009 (ip), vehicle: saline with Tween-80 102 % of control

COc1ccc(/C=C2/C(=O)N(c3ccccc3)N=C2C)cc1OC
inactive: dose: 60.0 mg/kg/injection, schedule: Q01DX005 (ip), vehicle: Klucel (hydroxypropylcellulose) (HPC) 101 % of control | dose: 120.0 mg/kg/injection, schedule: Q01DX005 (ip), vehicle: Klucel (hydroxypropylcellulose) (HPC) 93 % of control | dose: 240.0 mg/kg/injection, schedule: Q01DX005 (ip), vehicle: Klucel (hydroxypropylcellulose) (HPC) 90 % of control

Cc1cc[n+](CCC(N)=O)cc1
inactive: [9] 100 % of control | [10] 100 % of control

Cc1ccc(C(=O)CSC2=NCCN2)cc1Cl
inactive: [11] 106 % of control | [12] 100 % of control | [13] 97 % of control

CNC(=O)CCl
inactive: [9] 99 % of control | [10] 99 % of control

CS(=O)(=O)/C=C/c1cccnc1
inactive: [2] 101 % of control | [3] 99 % of control | [4] 103 % of control

CCC[CH2][Sn]([Cl])([CH2]CCC)[S]/C(C#N)=N/N=C/c1ccc(N(C)C)cc1
inactive: dose: 15.0 mg/kg/injection, schedule: Q01DX005 (ip), vehicle: saline with Tween-80 106 % of control | [11] 122 % of control

N=c1ccc([N+](=O)[O-])cn1O
inactive: [5] 98 % of control | [6] 96 % of control

COc1cc(OC)c2cc(C(=O)c3ccc(C#N)cc3)c(=O)oc2c1
inactive: [11] 94 % of control | [12] 104 % of control | [13] 105 % of control

Cc1ccc(Nc2ccc3c4c(cc(=O)n3C)-c3ccccc3C(=O)c24)c(S(=O)(=O)O)c1
inactive: [5] 87 % of control | [6] 91 % of control | [7] 99 % of control | [8] 95 % of control

O=C1C(c2ccccc2)=c2c(c3ccccc3c3ccccc23)=C1c1ccccc1
inactive: [14] 99 % of control | dose: 50.0 mg/kg/injection, schedule: Q01DX005 (ip), vehicle: Klucel + Tween-80 89 % of control and 95 % of control | [15] 98 % of control | dose: 100.0 mg/kg/injection, schedule: Q01DX005 (ip), vehicle: Klucel + Tween-80 89 % of control and 104 % of control | [16] 95 % of control | dose: 200.0 mg/kg/injection, schedule: Q01DX005 (ip), vehicle: Klucel + Tween-80 106 % of control

O=C(Nc1ccc(Cl)cc1)NC1OC(=O)C(Cl)=C1Cl (centres undefined)
inactive: dose: 6.25 mg/kg/injection, schedule: Q01DX009 (ip), vehicle: saline 105 % of control | dose: 12.5 mg/kg/injection, schedule: Q01DX009 (ip), vehicle: saline 108 % of control | dose: 25.0 mg/kg/injection, schedule: Q01DX009 (ip), vehicle: saline 106 % of control | [5] 117 % of control | [6] 106 % of control

Cn1cnc([N+](=O)[O-])c1Sc1ccc(Cl)cc1
inactive: dose: 0.79 mg/kg/injection, schedule: Q01DX009 (ip), vehicle: saline with Tween-80 104 % of control | dose: 1.56 mg/kg/injection, schedule: Q01DX009 (ip), vehicle: saline with Tween-80 104 % of control | dose: 3.12 mg/kg/injection, schedule: Q01DX009 (ip), vehicle: saline with Tween-80 97 % of control

O=S1(=O)C=C(c2cccs2)C1
inactive: dose: 25.0 mg/kg/injection, schedule: Q04DX003 (ip), vehicle: saline with Tween-80 97 % of control | dose: 50.0 mg/kg/injection, schedule: Q04DX003 (ip), vehicle: saline with Tween-80 109 % of control | dose: 100.0 mg/kg/injection, schedule: Q04DX003 (ip), vehicle: saline with Tween-80 105 % of control and 112 % of control

COc1cc(N2C(=O)CSC2=S)cc(OC)c1OC
inactive: [2] 100 % of control | [3] 89 % of control | [4] 101 % of control

CCOC(=O)CNC(=O)C(CSCc1ccccc1)NC(=O)C(NC(=O)OCc1ccccc1)C(C)C (stereo not drawn) (Cbz-Val-Cys(Bn)-Gly-OEt; configuration not given here)
inactive: [14] 98 % of control | [15] 100 % of control | [16] 88 % of control

CN1C(=O)C2(OC(N)=C(O)C2=O)c2ccccc21 (centres undefined)
inactive: [14] 99 % of control | [15] 96 % of control | [16] 97 % of control

O=S(=O)(OC(F)(F)F)C(F)(F)F
inactive: dose: 24.5 mg/kg/injection, schedule: Q01DX001 (ip), vehicle: Klucel (hydroxypropylcellulose) (HPC) 97 % of control | dose: 49.0 mg/kg/injection, schedule: Q01DX001 (ip), vehicle: Klucel (hydroxypropylcellulose) (HPC) 94 % of control | dose: 98.0 mg/kg/injection, schedule: Q01DX001 (ip), vehicle: Klucel (hydroxypropylcellulose) (HPC) 94 % of control

CCOC(=O)C1=C(C(=O)c2ccccc2)C(c2ccc([N+](=O)[O-])cc2)C(C(=O)c2ccccc2)=C(C(=O)OCC)N1
inactive: dose: 7.5 mg/kg/injection, schedule: Q01DX005 (ip), vehicle: Klucel (hydroxypropylcellulose) (HPC) 94 % of control | dose: 15.0 mg/kg/injection, schedule: Q01DX005 (ip), vehicle: Klucel (hydroxypropylcellulose) (HPC) 95 % of control | dose: 30.0 mg/kg/injection, schedule: Q01DX005 (ip), vehicle: Klucel (hydroxypropylcellulose) (HPC) 100 % of control

O=P1(c2ccccc2)Cc2ccccc2N1Cc1ccccc1 (centres undefined)
inactive: [1] 100 % of control | dose: 100.0 mg/kg/injection, schedule: Q01DX005 (ip), vehicle: saline with Tween-80 103 % of control | dose: 200.0 mg/kg/injection, schedule: Q01DX005 (ip), vehicle: saline with Tween-80 104 % of control
